From US7332602B2, “Pyridyl substituted heterocycles useful for treating or preventing HCV infection” (Rigel Pharmaceuticals, Inc., priority 2002, dated 2008) come the findings set out here.

Where two headings read alike, the source gives them in different places.

The test system of data set [1] is HCV replicon (5-2 Luc replicon-comprising cells). The data set is described as follows: HCV replicon assay (luciferase reporter). Type of data set: cell-based, Hepatitis C virus. The settings on record: Hepatitis C virus, read-out: Replicon (IC50, 50% reduction in luciferase emission). The procedure: The inhibitory activity of certain exemplary compounds of the invention was confirmed using an HCV replicon assay. The HCV replicon can include such features as the HCV IRES, the HCV 3′ untranslated region, selected HCV genes encoding HCV polypeptides, selectable markers, and a reporter gene such as luciferase, GEP, etc. In the assay, actively dividing 5-2 Luc replicon-comprising cells were seeded at a density of between about 5,000 and 7,500 cells/well onto 96 well plates (about 90 μl of cells per well) and incubated at 37° C. and 5% CO2 for 24 hours. Then, the test compound (in a volume of about 10 μl) was added at various concentrations to each well and the cells were incubated for an additional 24 hours before luciferase assay. The cells were harvested, and HCV replication or translation was monitored via a reporter assay, e.g., a luciferase reporter assay. The media was aspirated from each cell and Bright-Glo ([…].) luciferase assay reagents were added to each well according to the manufacturer's instructions. In this assay, the amount of test compound that yielded a 50% reduction in luciferase emission (IC50) was determined.
A general note: A replicon is a self-replicating genome or part of one, used to study replication in cells.

Data set [2] relates to HCV proteins (HCV replication). Kind of data set: quantitative Western blot analysis with antibodies specific for certain HCV proteins. Type of data set: cell-based, Hepatitis C virus. The settings on record: Hepatitis C virus, read-out: Western (IC50, 50% reduction in the amount of the specified HCV protein). The procedure:
Certain exemplary compounds of the invention were also tested for their ability to inhibit HCV replication using a quantitative Western blot analysis with antibodies specific for certain HCV proteins. In this assay, the amount of test compound that yielded a 50% reduction in the amount of the specified HCV protein as compared to a control sample (IC50) was determined.
A general note: A western blot detects proteins with antibodies after separation by electrophoresis.

Data set [3] in a line: cytotoxicity assay (Cell Titer Glo). Type of data set: cell-based. Particulars: human; 48 hr with compound, ATP-dependent Cell Titer Glo; read-out: IC50 (cytotoxicity, number of viable cells). How it is done: Compounds 1, 3, 7, 9, 11, 13, 17, 19, 21, 27, 29, 31, 33, 35, 37, 39, 47, 49, 51, 57 and 69 were tested in a cytotoxicity assay with liver cells including an HCV replicon (5-2 Luc cells, 9-13 cells or Huh-7 cells). In the assay, cells were seeded onto 96-well plates (approx. 7500 cells/well in a volume of 90 μl) and grown for 24 hr at 37° C. On day 2, various concentrations of test compound (in a volume of 10 μl) were added to the wells and the cells were grown for an additional 48 hr at 37° C. On day 4, an ATP-dependent R-Luciferase assay (Cell Titer Glo assay) was performed to determine the number of viable cells.
(In general: ATP-based viability assays read luminescence as a measure of living cells.)

Setting [4] is: first symbol of the Replicon/Western cell, 5-2 Luc replicon cells, 24 hours with compound.
Where [5] appears, read: second symbol of the Replicon/Western cell.

Broadly, the IC50 is the point on the concentration scale where inhibition reaches its midpoint. On to `O=C(Nc1cncc(-c2cc(-c3c(F)cccc3F)no2)c1)C(Cl)Cl` [Compound 27, 2,2-Dichloro-N-[5-[3-(2,6-difluorophenyl)-5-isoxazolyl]-(3-pyridyl)] Acetamide], for which the IC50 in data set [1] (setting [4]) and in data set [2] (setting [5]) was under 10 µM throughout. The half-maximal inhibitory concentration (IC50) at 48 h in data set [3] was at least 10 µM.
Consider `O=C(Nc1cncc(-c2cc(-c3c(F)cccc3Cl)no2)c1)C(Cl)Cl` [Compound 13, 2,2-Dichloro-N-[5-[3-(2-chloro-6-fluorophenyl)-5-isoxazolyl]-(3-pyridyl)] Acetamide], for which the IC50 in data set [1] (setting [4]) and in data set [2] (setting [5]) was under 10 µM in each case. Also, the IC50 at 48 h in data set [3] came to 3 µM.
For the molecule `COc1cccc(C(F)(F)F)c1-c1cc(-c2cncc(NC(=O)C(Cl)Cl)c2)on1` [Compound 57, 2,2-Dichloro-N-[5-[3-(2-methoxy-6-trifluoromethylphenyl)-5-isoxazolyl]-(3-pyridyl)] Acetamide], the concentration for half-maximal inhibition (IC50) in data set [1] (setting [4]) and in data set [2] (setting [5]) was under 10 µM throughout. Also, in data set [3], the IC50 at 48 h was over 5 µM.
As to `Cc1cccc(C)c1-c1cc(-c2cncc(NC(=O)C(Cl)Cl)c2)on1` [Compound 21, 2,2-Dichloro-N-[5-[3-(2,6-dimethylphenyl)-5-isoxazolyl]-(3-pyridyl)] Acetamide], the half-inhibitory concentration (IC50) was under 10 µM in data set [1] (setting [4]) and over 10 µM in data set [2] (setting [5]). Further, the half-inhibitory concentration (IC50) at 48 h in data set [3] was at least 10 µM.
In the same order, the values of `O=C(Nc1ccnc(-c2cc(-c3c(F)cccc3C(F)(F)F)no2)c1)C(Cl)Cl` [Compound 3, 2,2-Dichloro-N-[2-[3-(2-fluoro-6-trifluoromethylphenyl)-5-isoxazolyl]-(4-pyridyl)] Acetamide] are under 10 µM, under 10 µM and at least 10 µM.
With `COc1cccc(C(F)(F)F)c1-c1cc(-c2cc(NC(=O)C(Cl)Cl)ccn2)on1` [Compound 49, 2,2-Dichloro-N-[2-[3-(2-methoxy-6-trifluoromethylphenyl)-5-isoxazolyl]-(4-pyridyl)] Acetamide], the IC50 in data set [1] (setting [4]) and in data set [2] (setting [5]) was under 10 µM each time. In addition, in data set [3], the IC50 at 48 h was at least 10 µM.
As for `COc1cccc(F)c1-c1cc(-c2cncc(NC(=O)C(Cl)Cl)c2)on1` [Compound 17, 272-Dichloro-N-[5-[3-(2-fluoro-6-methoxyphenyl)-5-isoxazolyl]-(3-pyridyl)] Acetamide], the IC50 in data set [1] (setting [4]) and in data set [2] (setting [5]) was under 10 µM each time. In addition, the half-maximal inhibitory concentration (IC50) at 48 h in data set [3] was at least 10 µM.
With `O=C(Nc1ccnc(-c2cc(-c3c(Cl)cccc3Cl)no2)c1)C(Cl)Cl` [Compound 9, 2,2-Dichloro-N-[2-[3-(2,6-dichlorophenyl)-5-isoxazolyl]-(4-pyridyl)] Acetamide], the IC50 in data set [1] (24 h) and in data set [2] was under 10 µM in each case. The 50% inhibitory concentration (IC50) at 48 h in data set [3] is at least 10 µM.
As to `O=C(Nc1cncc(-c2cc(-c3c(Cl)cccc3Cl)no2)c1)C(Cl)Cl` [Compound 7, 2,2-Dichloro-N-[5-[3-(2,6-dichlorophenyl)-5-isoxazolyl]-(3-pyridyl)] Acetamide], the concentration for half-maximal inhibition (IC50) in data set [1] (setting [4]) and in data set [2] (setting [5]) was under 10 µM each time. Moreover, the IC50 at 48 h in data set [3] is at least 10 µM.
